Assays:
[1] = system: bladder cancer cells (urothelial CSCs); assay: Sphere formation assay; format: cell-based, human; conditions: for sphere-forming ability / sphere formation: COX2 inhibitor or EP4 antagonist alone
Method: Sphere formation was induced by culturing cells (2×10^4/well) in […] F12 50/50 Mix (Mediatech) supplemented with B-27 (Life Technologies), 20 ng/mL FGF-basic (Peprotech), 20 ng/mL EGF (Peprotech). Cell culture was performed in ultra-low attachment 6 well plates (Corning, Lowell, USA) for 10 days. The medium was replaced every other day. Sphere formation was evaluated using the inverted phase-contrast microscope, and single sphere with a diameter larger than 100 gm was counted using NIS-Elements Microscope Imaging Software. To redifferentiate spheres, spheres were plated in standard growth medium with 10% FBS in dishes supporting cell attachment, and incubated for 7 days. For self-renewal assay, primary spheres were collected by gentle centrifugation (5 min at 400×g), dissociated with Stempro Accutase Cell Dissociation Reagent (Life Technologies), and mechanically disrupted with a pipette. The cell suspension was sieved through 40 μm cell strainer cap filter to achieve a single-cell suspension, and then equal numbers of alive cells were plated in ultralow attachment plates to generate the second spheres. Again, spheres were counted on day 14 and digested to generate the third Spheres. All the experiments were performed in triplicate and repeated at least three times.

SOX2 = assay: Western blotting / flow cytometry of SOX2 expression in bladder cancer cells; format: cell-based, human
Method: (§1) Whole cell lysates were extracted using RIPA buffer (Thermo Scientific) supplemented with 10 μL/mL Halt™ Protease Inhibitor Cocktail Kit (Life Technologies) and 30 μL/mL Halt™ Phosphatase Inhibitor Cocktail Kit (Life Technologies). The protein concentrations were determined using a Pierce™ BCA Protein Assay Kit (Life Technologies), and the protein were separated on. NuPAGE 4-12% Bis-Tris Gel (Life Technologies) according to the manufacturer's protocol. COX2 (D5H5), NANOG (D73G4), OCT4 (D7O5Z), CD133 (A3G6K), Snail (C15D3), ZEBI (D80D3), Vimentin (D21H3), CDH2 (D4R1H), CDH1 (24E10), p-EGFR (D7A5), EGFR (D38B1), p-AKT (D9E), AKT (cat #, 9272), p-ERK (D13.14.4E), ERK (137F5), p-YAP1 (D9W2I), p-Src (cat #, 2101), Src (36D10), DNMT1 (D63A6), DNMT3A (D23G1), and DNMT3B (D7070) antibodies were obtained from Cell Signaling Technology (Danvers, Mass., USA), except for SOX2 (EPR3131; Abeam, Cambridge, USA), YAP1 (ab52771; Abeam), CD24 (cat #, AF5247-SP; R&D Systems, Minneapolis USA) and β-actin (A2228; Sigma-Aldrich). Secondary horseradish peroxidase (HRP)-conjugated antibodies were obtained from Cell Signaling Technology, and chemiluminescent detection of HRP-labeled antibodies was performed using Amersham ECL Prime Western Blotting Detection Reagent (GE Healthcare, Piscataway, USA). As loading control, β-actin was used.
For extracellular staining, cells (1×10^6/100 μL stain buffer) were incubated with PE-Vio770-conjugated anti-human CD133 (293C3; Miltenyi Biotec, Auburn, USA) or PE-conjugated anti-human CD24 antibody (cat #, 560991; BD Biosciences) for 30 min at 4° C. in dark. PE-Vio770-conjugated anti-IgG1κ Isotype (cat #, 130-098-563; Miltenyi Biotec) and PE-conjugated IgG2a, κ Isotype (cat #, 555574; BD Biosciences) were used as control for CD133 and CD24 staining, respectively. Staining for intracellular SOX2 was carried out using the BD Cytofix/Cytopem Fixation/Permeabilization Kit (BD Biosciences) according to manufacturer's protocol. The cells were incubated with Alexa Fluor 647-conjugated anti-SOX2 antibody (cat #, 560302; BD Biosciences) for 40 min at 4° C. in dark. Alexa Fluor 647-conjugated anti-IgG2a, κ Isotype (cat #, 558053; BD Biosciences) was used as control. Data were acquired on a BD FACSCalibur flow cytometer (BD Biosciences) using BD CellQuest Pro software (BD Biosciences) and analyzed with FlowJo software v10.1 (Tree Star, Ashland, USA).

YAP1 = assay: Western blotting of YAP1 expression in bladder cancer cells; format: cell-based, human
Method: as §1

COX2 = assay: Western blotting of COX2 expression in bladder cancer cells; format: cell-based, human
Method: as §1

[2] = Body weight of treated mice; format: in vivo; conditions: mouse, in vivo
Method: For therapeutic efficacy, mice were randomly assigned into experimental groups (five mice per group) when tumors reached a volume of […]. For celecoxib and/or VP treatment, celecoxib (5 mg/kg) was administered via intraperitoneal (i.p.) injection once a day (17), and VP (50 mg/kg) was administered via i.p. every other day (18). EP4 antagonist ONO-AE3-208 (10 mg/kg) was administered via i.p. once a day (19). Control was applied with same volume (10 μL per injection) of 10% dimethyl sulphoxide in 1% TWEEN 80 (Sigma-Aldrich). For GEM and CDDP (GC) treatment (i.p.), CDDP (6 mg/kg) was only applied after the first GEM (60 mg/kg) treatment on day 2, followed by three consecutive treatments of GEM on day 5, 8 and 11 (17). The next cycle was started on day 18, and the treatment was continued until tumor reached 2 cm in diameter. For erlotinib treatment, the mice were treated once a day, 6 days per week, by oral gavage with erlotinib (100 mg/kg) or control (PBS containing 0.5% methyl cellulose (Sigma-Aldrich) and 0.1% TWEEN 80) (20). Tumor size was measured at least every three days. Therapeutic efficacy was assessed using percentage change after treatment related to tumor size before treatment. […]

let-7 = let-7 expression by Q-RT-PCR; format: cell-based, human; conditions: parental or spheroid bladder cancer cells
Method: (§2) Total RNA from cell lines was isolated using the RNeasy Plus Mini kit (Qiagen, Valencia, USA) according to the manufacturer's protocol. Total RNA extraction from bladder tissue was performed with the QIAzol Lysis Reagent (Qiagen) followed by phenol extraction and ethanol precipitation. Total RNA was eluted in DEPC treated water and stored at −80 ° C. Total RNA extraction from urine was performed using the MirVana miRNA Isolation Kit (Ambion, Austin, USA). These total RNA were converted to cDNA using the SuperScript III First-Strand Synthesis System (Life technologies, Carlsbad, USA), which was then used as a template for Q-RT-PCR. Q-RT-PCR was performed using the Fast SYBR Green Master Mix (Thermo Fisher Scientific, Waltham, USA) on a 7900HT Fast Real-Time PCR System (Life technologies) in triplicate. Micro RNA (miRNA) extraction was performed using the MirVana miRNA Isolation Kit, and was reverse transcribed using TaqMan reverse transcription kit (Applied Biosystems, Foster City, USA) and miRNA-specific RT primers provided with TaqMan microRNA assays (Applied Biosystems). Q-RT-PCR for miRNAs was performed using the TaqMan Universal PCR Master Mix according to the manufacturer's protocol. SDS software (Applied Biosystems) was used to determine cycle threshold (Ct) values. Expression level was quantified relative to β-actin for mRNA and RNU6B for miRNA using the 2-ΔΔCt method (12).
For demethylation, cells (1×10^6/T-75 flask) were treated with […] of the demethylating agent 5-Aza-dC (Sigma) dissolved in 50% acetic acid or were mock-treated with phosphate buffered saline (PBS) including the same amount of acetic acid every 24 hours for 5 days. When combined with the histone deacetylase inhibitor TSA (Sigma), 300 nmol/L TSA was added to the medium for the final 24 hours.

[3] = system: let-7 host gene MIRLET7BHG promoter; assay: Bisulfite sequencing of let-7 host gene promoter methylation; format: cell-based, human; conditions: 10 μM celecoxib, 2 μM PGE2, or 5 μM 5-Aza-dC for 5 days
Method: Cell pellets were digested with 1% sodium dodecyl sulfate and 50 μg/mL proteinase K (Roche, Nutley, USA) at 48° C. overnight. Isolation of genomic DNA from cell lines was performed with the phenol-chloroform extraction protocol followed by ethanol precipitation. Bisulfite treatment was conducted using an EpiTect Bisulfite K ft (QIAGEN, Valencia, USA), and was subsequently amplified via PCR using primers as shown in the following table. PCR products were purified using the QIAquick Gel Extraction kit (Qiagen), and sequenced by Genewiz DNA sequencing service (Genewiz, South Plainfield, USA). The data were analyzed using the Sequence Scanner v1.0 software (Life technologies). A methylation frequency of ≥50% of total CpG sites within the amplified region was considered “methylation-positive”. For demethylation, cells ([…]) dissolved in 50% acetic acid or were mock-treated with phosphate buffered saline (PBS) including the same amount of acetic acid every 24 hours for 5 days. When combined with the histone deacetylase inhibitor TSA (Sigma), 300 nmol/L TSA was added to the medium for the final 24 hours.

DNMT 1 and 3A = assay: Western blotting of DNMTs; format: cell-based, human; conditions: PGE2-treated cells
Method: as §1

[4] = system: panel of miRNAs in BFTC 905 cells; assay: Expression of a panel of miRNAs; format: cell-based, human; conditions: addition of PGE2 to COX2 inhibitor
Method: as §2

[5] = COX2 inhibitor or EP4 antagonist alone (FIG. 2A-B, S7)
[6] = addition of PGE2 to celecoxib treatment

For `CC(C(=O)Nc1cc(C#N)ccc1CCCC(=O)O)c1ccc(F)c2ccccc12` (stereo not shown) [EP4-specific antagonist, ONO-AE3-208], the “sphere-forming ability / sphere formation” value [1] was “dramatic reduction” and the SOX2 expression (SOX2; [5]) was “dramatic reduction”.

For `CC(C)(C)n1nc(-c2ccc(Cl)cc2)c2c(N)ncnc21` [Src inhibitor, PP2], the “COX2 inhibitor-induced YAP1 expression” value (YAP1; treatment with the Src inhibitor (FIG. S8H)) was “downregulated”.

In the case of `C=Cc1c(C)c2cc3nc(cc4[nH]c(cc5nc(cc1[nH]2)C(C)=C5CCC(=O)O)c(CCC(=O)OC)c4C)[C@@]1(C)C3=CC=C(C(=O)OC)[C@H]1C(=O)OC` [VP, 3-[(23S,24R)-14-ethenyl-5-(3-methoxy-3-oxopropyl)-22,23-bis(methoxycarbonyl)-4,10,15,24-tetramethyl-25,26,27,28-tetraazahexacyclo[16.6.1.1^3,6.1^8,11.1^13,16.0^19,24]octacosa-1,3,5,7,9,11(27),12,14,16,18(25),19,21-dodecaen-9-yl]propanoic acid], the COX2 expression (COX2; VP alone) is reported as “induced COX2 expression in a dose-dependent manner”, the “expression of SOX2 and its related molecules” value (SOX2; VP alone) is reported as “reduced expression” and the body weight loss [2] is reported as “did not observe body weight loss”.

With “EGF: Recombinant human epidermal growth factor” the YAP1 expression (YAP1; EGF-stimulated EGFR signaling) was “increased” and the SOX2 expression (SOX2; EGF-stimulated EGFR signaling) was “increased”.

For `CCc1cccc2c3c([nH]c12)C(CC)(CC(=O)O)OCC3` (stereo not shown) [etodolac, Etodolac], the “sphere-forming ability / sphere formation” value [1] was “dramatic reduction” and the SOX2 expression (SOX2; [5]) was “dramatic reduction”.

In the case of `N.N.[Cl][Pt][Cl]` [cisplatin, Cisplatin], the sphere formation ([1]; CDDP chemotherapy alone) is reported as “increased sphere formation”, the COX2 expression (COX2; CDDP chemotherapy alone) is reported as “overexpression” and the YAP1 expression (YAP1; CDDP chemotherapy alone) is reported as “overexpression”. The SOX2 expression (SOX2; CDDP chemotherapy alone) was “overexpression”.

In the case of `Nc1ncn([C@H]2C[C@H](O)[C@@H](CO)O2)c(=O)n1` [5-Aza-dC, 5-Aza-2′-deoxycytidine], the let-7 expression (let-7) is reported as “restoration of let-7 expression” and the “promoter methylation of the let-7 host gene” value [3] is reported as “demethylated”.

With `CCCCC[C@H](O)/C=C/[C@H]1[C@H](O)CC(=O)[C@@H]1C/C=C\CCCC(=O)O` [PGE2, Prostaglandin E2] the “DNMT 1 and 3A expression” value (DNMT 1 and 3A) was “upregulated”, the celecoxib-repressed sphere-forming ability [1, 6] was “restored” and the let-7 expression (let-7) was “reduced its expression”. For the same molecule, the “promoter methylation of the let-7 host gene” value [3] was “Promoter methylation of the let-7 host gene was observed”, the “celecoxib-repressed SOX2 expression” value (SOX2; [6]) was “restored” and the “expression of several miRNAs” value [4] was “reduced these expression”.

From patent US20220184037A1, “PHARMACEUTICAL AGENTS TARGETING CANCER STEM CELLS” (THE JOHNS HOPKINS UNIVERSITY, priority 2020, published 2022)
